The numbers were not newly measured in patent publication US20110160154A1, “SUBSTITUTED PIPERAZINES” (Auspex Pharmaceuticals, Inc., priority 2007, published 2011), which cites them from elsewhere.

Structures are written as SMILES.

Series [1] has as its system late sodium current (INa). The settings on record: literature value (Antzelevitch et al. 2004); read-out: IC50 for inhibition of late sodium current (INa).
For series [2] the following is noted: background statement; ranolazine must be taken frequently.

As a reminder, the IC50 is the concentration at which inhibition is half-maximal. As to `COc1ccccc1OCC(O)CN1CCN(CC(=O)Nc2c(C)cccc2C)CC1` (centres unmarked) [ranolazine, N-(2,6-dimethyl-phenyl)-2-{4-[2-hydroxy-3-(2-methoxy-phenoxy)-propyl]-piperazin-1-yl}-acetamide], the 50% inhibitory concentration (IC50) in series [1] is 5 to 21 µM. In series [2], the half-life entry is “less than two”.
